Experimental data as given in the NIST ThermoML archive (doi:10.1021/acs.jced.6b00350).
Values joined by “and” are separate entries in the source; they are usually repeats but may differ in a detail not shown here. Equal entries are not always repeated. ± gives the expanded uncertainty stated by the source.

Settings: Liquid, Hot wire method

Q: Which results are given for `FC(F)CC(F)(F)F` [1,1,1,3,3-pentafluoropropane]?
A: thermal conductivity (222.11 K, 10047 kPa): 0.1156 ± 0.0015 W/m/K; thermal conductivity (222.11 K, 15756 kPa): 0.117 ± 0.0015 W/m/K; thermal conductivity (222.12 K, 15761 kPa): 0.1169 ± 0.0015 W/m/K; thermal conductivity (222.12 K, 21261 kPa): 0.1184 ± 0.0015 W/m/K; thermal conductivity (222.12 K, 21267 kPa): 0.1186 ± 0.0015 W/m/K; thermal conductivity (222.13 K, 27470 kPa): 0.1201 ± 0.0015 W/m/K; thermal conductivity (222.13 K, 27478 kPa): 0.1202 ± 0.0015 W/m/K; thermal conductivity (222.13 K, 33686 kPa): 0.1212 ± 0.0015 W/m/K; thermal conductivity (222.16 K, 33712 kPa): 0.1215 ± 0.0015 W/m/K; thermal conductivity (222.37 K, 39767 kPa): 0.1235 ± 0.0016 W/m/K; thermal conductivity (222.37 K, 47190 kPa): 0.1251 ± 0.0016 W/m/K; thermal conductivity (222.38 K, 39761 kPa): 0.1235 ± 0.0016 W/m/K; thermal conductivity (222.38 K, 47197 kPa): 0.125 ± 0.0016 W/m/K; thermal conductivity (222.38 K, 54316 kPa): 0.1267 ± 0.0016 W/m/K; thermal conductivity (222.38 K, 54318 kPa): 0.1267 ± 0.0016 W/m/K; thermal conductivity (222.38 K, 61389 kPa): 0.1284 ± 0.0016 W/m/K; thermal conductivity (222.38 K, 67942 kPa): 0.1297 ± 0.0016 W/m/K; thermal conductivity (222.39 K, 61385 kPa): 0.1283 ± 0.0016 W/m/K; thermal conductivity (222.39 K, 67938 kPa): 0.1298 ± 0.0016 W/m/K; thermal conductivity (222.5 K, 255 kPa): 0.1121 ± 0.0014 W/m/K; thermal conductivity (222.5 K, 4863 kPa): 0.1134 ± 0.0014 W/m/K; thermal conductivity (222.5 K, 4873 kPa): 0.1134 ± 0.0014 W/m/K; thermal conductivity (222.51 K, 9999 kPa): 0.1152 ± 0.0015 W/m/K; thermal conductivity (222.51 K, 10021 kPa): 0.1152 ± 0.0015 W/m/K; thermal conductivity (222.51 K, 15761 kPa): 0.1166 ± 0.0015 W/m/K; thermal conductivity (222.51 K, 15763 kPa): 0.1166 ± 0.0015 W/m/K; thermal conductivity (222.51 K, 21262 kPa): 0.1182 ± 0.0015 W/m/K; thermal conductivity (222.51 K, 21266 kPa): 0.1185 ± 0.0015 W/m/K; thermal conductivity (222.51 K, 27487 kPa): 0.12 ± 0.0015 W/m/K; thermal conductivity (222.52 K, 245 kPa): 0.112 ± 0.0014 W/m/K; thermal conductivity (222.52 K, 27479 kPa): 0.1198 ± 0.0015 W/m/K; thermal conductivity (222.52 K, 33833 kPa): 0.1215 ± 0.0015 W/m/K; thermal conductivity (222.53 K, 33800 kPa): 0.1213 ± 0.0015 W/m/K; thermal conductivity (222.77 K, 67930 kPa): 0.1298 ± 0.0016 W/m/K; thermal conductivity (222.78 K, 39758 kPa): 0.1234 ± 0.0016 W/m/K; thermal conductivity (222.78 K, 39765 kPa): 0.1236 ± 0.0016 W/m/K; thermal conductivity (222.78 K, 47189 kPa): 0.1249 ± 0.0016 W/m/K; thermal conductivity (222.78 K, 47193 kPa): 0.125 ± 0.0016 W/m/K; thermal conductivity (222.78 K, 54318 kPa): 0.1265 ± 0.0016 W/m/K; thermal conductivity (222.78 K, 54319 kPa): 0.1266 ± 0.0016 W/m/K; thermal conductivity (222.78 K, 61395 kPa): 0.1281 ± 0.0016 W/m/K; thermal conductivity (222.78 K, 61401 kPa): 0.1282 ± 0.0016 W/m/K; thermal conductivity (222.78 K, 67928 kPa): 0.1296 ± 0.0016 W/m/K; thermal conductivity (222.94 K, 4870 kPa): 0.113 ± 0.0014 W/m/K; thermal conductivity (222.94 K, 10017 kPa): 0.1147 ± 0.0015 W/m/K; thermal conductivity (222.94 K, 10023 kPa): 0.1147 ± 0.0015 W/m/K; thermal conductivity (222.94 K, 15762 kPa): 0.1162 ± 0.0015 W/m/K; thermal conductivity (222.94 K, 15767 kPa): 0.1163 ± 0.0015 W/m/K; thermal conductivity (222.94 K, 21269 kPa): 0.1181 ± 0.0015 W/m/K; thermal conductivity (222.94 K, 21277 kPa): 0.118 ± 0.0015 W/m/K; thermal conductivity (222.94 K, 27478 kPa): 0.1199 ± 0.0015 W/m/K; thermal conductivity (222.94 K, 27487 kPa): 0.1197 ± 0.0015 W/m/K; thermal conductivity (222.94 K, 33837 kPa): 0.1213 ± 0.0015 W/m/K; thermal conductivity (222.94 K, 33847 kPa): 0.1213 ± 0.0015 W/m/K; thermal conductivity (222.95 K, 242 kPa): 0.1115 ± 0.0014 W/m/K; thermal conductivity (222.95 K, 262 kPa): 0.1116 ± 0.0014 W/m/K; thermal conductivity (222.95 K, 4862 kPa): 0.113 ± 0.0014 W/m/K; thermal conductivity (223.19 K, 67923 kPa): 0.1295 ± 0.0016 W/m/K; thermal conductivity (223.2 K, 61398 kPa): 0.128 ± 0.0016 W/m/K; thermal conductivity (223.2 K, 67921 kPa): 0.1295 ± 0.0016 W/m/K; thermal conductivity (223.21 K, 54306 kPa): 0.1263 ± 0.0016 W/m/K; thermal conductivity (223.21 K, 61402 kPa): 0.128 ± 0.0016 W/m/K; thermal conductivity (223.22 K, 39767 kPa): 0.1231 ± 0.0016 W/m/K; thermal conductivity (223.22 K, 47186 kPa): 0.1248 ± 0.0016 W/m/K; thermal conductivity (223.22 K, 47187 kPa): 0.1248 ± 0.0016 W/m/K; thermal conductivity (223.22 K, 54313 kPa): 0.1265 ± 0.0016 W/m/K; thermal conductivity (223.23 K, 39773 kPa): 0.1231 ± 0.0016 W/m/K; thermal conductivity (223.38 K, 33868 kPa): 0.1211 ± 0.0015 W/m/K; thermal conductivity (223.39 K, 33861 kPa): 0.1211 ± 0.0015 W/m/K; thermal conductivity (223.4 K, 21286 kPa): 0.1177 ± 0.0015 W/m/K; thermal conductivity (223.4 K, 27486 kPa): 0.1196 ± 0.0015 W/m/K; thermal conductivity (223.4 K, 27487 kPa): 0.1195 ± 0.0015 W/m/K; thermal conductivity (223.41 K, 15762 kPa): 0.1159 ± 0.0015 W/m/K; thermal conductivity (223.41 K, 15769 kPa): 0.1159 ± 0.0015 W/m/K; thermal conductivity (223.41 K, 21280 kPa): 0.1178 ± 0.0015 W/m/K; thermal conductivity (223.42 K, 4862 kPa): 0.1127 ± 0.0014 W/m/K; thermal conductivity (223.42 K, 4869 kPa): 0.1127 ± 0.0014 W/m/K; thermal conductivity (223.42 K, 10011 kPa): 0.1143 ± 0.0014 W/m/K; thermal conductivity (223.42 K, 10015 kPa): 0.1145 ± 0.0014 W/m/K; thermal conductivity (223.43 K, 243 kPa): 0.1111 ± 0.0014 W/m/K; thermal conductivity (223.43 K, 251 kPa): 0.1111 ± 0.0014 W/m/K; thermal conductivity (223.65 K, 67907 kPa): 0.1291 ± 0.0016 W/m/K; thermal conductivity (223.65 K, 67916 kPa): 0.1294 ± 0.0016 W/m/K; thermal conductivity (223.66 K, 61399 kPa): 0.1279 ± 0.0016 W/m/K; thermal conductivity (223.67 K, 61396 kPa): 0.1278 ± 0.0016 W/m/K; thermal conductivity (223.68 K, 54302 kPa): 0.1262 ± 0.0016 W/m/K; thermal conductivity (223.68 K, 54305 kPa): 0.1261 ± 0.0016 W/m/K; thermal conductivity (223.69 K, 47183 kPa): 0.1247 ± 0.0016 W/m/K; thermal conductivity (223.69 K, 47193 kPa): 0.1247 ± 0.0016 W/m/K; thermal conductivity (223.7 K, 39777 kPa): 0.123 ± 0.0016 W/m/K; thermal conductivity (223.71 K, 39772 kPa): 0.1229 ± 0.0016 W/m/K; thermal conductivity (223.87 K, 33885 kPa): 0.1209 ± 0.0015 W/m/K; thermal conductivity (223.88 K, 33873 kPa): 0.1209 ± 0.0015 W/m/K; thermal conductivity (241.3 K, 9886 kPa): 0.1092 ± 0.0014 W/m/K; thermal conductivity (241.3 K, 15301 kPa): 0.1111 ± 0.0014 W/m/K; thermal conductivity (241.31 K, 9877 kPa): 0.1094 ± 0.0014 W/m/K; thermal conductivity (241.32 K, 21013 kPa): 0.1123 ± 0.0014 W/m/K; thermal conductivity (241.32 K, 21021 kPa): 0.1121 ± 0.0014 W/m/K; thermal conductivity (241.33 K, 33388 kPa): 0.115 ± 0.0015 W/m/K; thermal conductivity (241.34 K, 33390 kPa): 0.1153 ± 0.0015 W/m/K; thermal conductivity (241.35 K, 26974 kPa): 0.1134 ± 0.0014 W/m/K; thermal conductivity (241.35 K, 26975 kPa): 0.1134 ± 0.0014 W/m/K; thermal conductivity (241.35 K, 46711 kPa): 0.1187 ± 0.0015 W/m/K; thermal conductivity (241.35 K, 46714 kPa): 0.1192 ± 0.0015 W/m/K; thermal conductivity (241.36 K, 39784 kPa): 0.1173 ± 0.0015 W/m/K; thermal conductivity (241.37 K, 297 kPa): 0.1065 ± 0.0014 W/m/K and 0.1069 ± 0.0014 W/m/K; thermal conductivity (241.37 K, 4974 kPa): 0.1077 ± 0.0014 W/m/K; thermal conductivity (241.37 K, 39780 kPa): 0.1174 ± 0.0015 W/m/K; thermal conductivity (241.38 K, 4982 kPa): 0.1074 ± 0.0014 W/m/K; thermal conductivity (241.38 K, 53704 kPa): 0.1209 ± 0.0015 W/m/K; thermal conductivity (241.38 K, 53707 kPa): 0.1206 ± 0.0015 W/m/K; thermal conductivity (241.41 K, 61279 kPa): 0.1222 ± 0.0015 W/m/K; thermal conductivity (241.43 K, 68711 kPa): 0.1241 ± 0.0016 W/m/K; thermal conductivity (241.43 K, 68724 kPa): 0.1238 ± 0.0016 W/m/K; thermal conductivity (241.68 K, 15290 kPa): 0.1103 ± 0.0014 W/m/K; thermal conductivity (241.69 K, 9889 kPa): 0.1088 ± 0.0014 W/m/K; thermal conductivity (241.69 K, 9892 kPa): 0.1093 ± 0.0014 W/m/K; thermal conductivity (241.69 K, 15293 kPa): 0.1107 ± 0.0014 W/m/K; thermal conductivity (241.69 K, 21027 kPa): 0.1119 ± 0.0014 W/m/K; thermal conductivity (241.69 K, 21032 kPa): 0.1126 ± 0.0014 W/m/K; thermal conductivity (241.7 K, 33378 kPa): 0.1158 ± 0.0015 W/m/K; thermal conductivity (241.7 K, 33381 kPa): 0.1154 ± 0.0015 W/m/K; thermal conductivity (241.7 K, 46707 kPa): 0.1184 ± 0.0015 W/m/K; thermal conductivity (241.71 K, 26968 kPa): 0.1137 ± 0.0014 W/m/K; thermal conductivity (241.71 K, 26981 kPa): 0.1139 ± 0.0014 W/m/K; thermal conductivity (241.71 K, 46714 kPa): 0.1189 ± 0.0015 W/m/K; thermal conductivity (241.72 K, 39777 kPa): 0.117 ± 0.0015 W/m/K; thermal conductivity (241.73 K, 39791 kPa): 0.1169 ± 0.0015 W/m/K; thermal conductivity (241.73 K, 53687 kPa): 0.1208 ± 0.0015 W/m/K; thermal conductivity (241.73 K, 53704 kPa): 0.1206 ± 0.0015 W/m/K; thermal conductivity (241.75 K, 61249 kPa): 0.1223 ± 0.0015 W/m/K; thermal conductivity (241.75 K, 61272 kPa): 0.1223 ± 0.0015 W/m/K; thermal conductivity (241.76 K, 296 kPa): 0.1058 ± 0.0014 W/m/K; thermal conductivity (241.76 K, 303 kPa): 0.1061 ± 0.0014 W/m/K; thermal conductivity (241.76 K, 4987 kPa): 0.108 ± 0.0014 W/m/K; thermal conductivity (241.77 K, 4997 kPa): 0.1079 ± 0.0014 W/m/K; thermal conductivity (241.77 K, 68669 kPa): 0.1236 ± 0.0016 W/m/K; thermal conductivity (241.78 K, 68692 kPa): 0.1241 ± 0.0016 W/m/K
